Results: US6358885B1, “Substituted phenylheterocyclic herbicides” (Mississippi State University, priority 1992, dated 2002)

Key:
Assay in all cases: Test B preemergence/postemergence greenhouse plant response rating 0 to 10
crabgrass = assay type: in vivo, Digitaria spp.; conditions: for Plant response rating, Crabgrass: 0 to 10 scale
How it was run: (§1)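 Postemergence treatment of plants two to eighteen cm tall ran alongside preemergence treatment of planted seed, each using compound in a non-phytotoxic solvent.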

wild oat = assay type: in vivo, Avena fatua; conditions: for Plant response rating, Wild oat: 0 to 10 scale
How it was run: as §1

bedstraw = assay type: in vivo, Galium aparine; conditions: for Plant response rating, Bedstraw: 0 to 10 scale
How it was run: as §1

chickweed = assay type: in vivo, Stellaria media; conditions: for Plant response rating, Chickweed: 0 to 10 scale
How it was run: as §1

sugar beet = assay type: in vivo, Beta vulgaris; conditions: for Plant response rating, Sugar beet: 0 to 10 scale
How it was run: as §1

cheatgrass = assay type: in vivo, Bromus secalinus; conditions: for Plant response rating, Cheatgrass: 0 to 10 scale
How it was run: as §1

giant foxtail = assay type: in vivo, Setaria faberii; conditions: for Plant response rating, Giant foxtail: 0 to 10 scale
How it was run: as §1

lambsquarters = assay type: in vivo, Chenopodium album; conditions: for Plant response rating, Lambsquarter: 0 to 10 scale
How it was run: as §1

corn = assay type: in vivo, Zea mays; conditions: for Plant response rating, Corn: 0 to 10 scale
How it was run: as §1

rice = assay type: in vivo, Oryza sativa; conditions: for Plant response rating, Rice: 0 to 10 scale
How it was run: as §1

cocklebur = assay type: in vivo, Xanthium pensylvanicum; conditions: for Plant response rating, Cocklebur: 0 to 10 scale
How it was run: as §1

soybean = assay type: in vivo, Glycine max; conditions: for Plant response rating, Soybean: 0 to 10 scale
How it was run: as §1

wild buckwheat = assay type: in vivo, Polygonum convolvulus; conditions: for Plant response rating, Wild buckwheat: 0 to 10 scale
How it was run: as §1

sorghum = assay type: in vivo, Sorghum bicolor; conditions: for Plant response rating, Sorghum: 0 to 10 scale
How it was run: as §1

cotton = assay type: in vivo, Gossypium hirsutum; conditions: for Plant response rating, Cotton: 0 to 10 scale
How it was run: as §1

wheat = assay type: in vivo, Triticum aestivum; conditions: for Plant response rating, Wheat: 0 to 10 scale
How it was run: as §1

purple nutsedge = assay type: in vivo, Cyperus rotundus; conditions: for Plant response rating, Nutsedge: 0 to 10 scale
How it was run: as §1

blackgrass = assay type: in vivo, Alopecurus myosuroides; conditions: for Plant response rating, Blackgrass: 0 to 10 scale
How it was run: as §1

morningglory = assay type: in vivo, Ipomoea hederacea; conditions: for Plant response rating, Morningglory: 0 to 10 scale
How it was run: as §1

barley = assay type: in vivo, Hordeum vulgare; conditions: for Plant response rating, Barley: 0 to 10 scale
How it was run: as §1

rape = assay type: in vivo, Brassica napus; conditions: for Plant response rating, Rape: 0 to 10 scale
How it was run: as §1

velvetleaf = assay type: in vivo, Abutilon theophrasti; conditions: for Plant response rating, Velvetleaf: 0 to 10 scale
How it was run: as §1

barnyardgrass = assay type: in vivo, Echinochloa crus-galli; conditions: for Plant response rating, Barnyardgrass: 0 to 10 scale
How it was run: as §1

Structure (SMILES): C=CCOc1cc(-c2nn3c(c2Cl)CCCC3)c(Cl)cc1Cl [Compound 71]
- Plant response rating, Crabgrass (crabgrass; POSTEMERGENCE, Rate 50 g/ha): 3
- Plant response rating, Crabgrass (crabgrass; PREEMERGENCE, Rate 50 g/ha): 0
- Plant response rating (0 to 10 scale), Crabgrass (crabgrass; PREEMERGENCE, Rate 200 g/ha): 5
- Plant response rating, Crabgrass (crabgrass; Rate 200 g/ha, POSTEMERGENCE): 3
- Plant response rating, Wild oat (wild oat; POSTEMERGENCE, Rate 50 g/ha): 3
- Plant response rating, Wild oat (wild oat; PREEMERGENCE, Rate 50 g/ha): 2
- Plant response rating (0 to 10 scale), Wild oat (wild oat; PREEMERGENCE, Rate 200 g/ha): 2
- Plant response rating, Wild oat (wild oat; Rate 200 g/ha, POSTEMERGENCE): 5
- Plant response rating, Bedstraw (bedstraw; POSTEMERGENCE, Rate 50 g/ha): 8
- Plant response rating, Bedstraw (bedstraw; PREEMERGENCE, Rate 50 g/ha): 2
- Plant response rating (0 to 10 scale), Bedstraw (bedstraw; PREEMERGENCE, Rate 200 g/ha): 6
- Plant response rating, Bedstraw (bedstraw; Rate 200 g/ha, POSTEMERGENCE): 9
- Plant response rating, Chickweed (chickweed; POSTEMERGENCE, Rate 50 g/ha): 2
- Plant response rating, Chickweed (chickweed; PREEMERGENCE, Rate 50 g/ha): 0
- Plant response rating (0 to 10 scale), Chickweed (chickweed; PREEMERGENCE, Rate 200 g/ha): 0
- Plant response rating, Chickweed (chickweed; Rate 200 g/ha, POSTEMERGENCE): 3
- Plant response rating, Sugar beet (sugar beet; POSTEMERGENCE, Rate 50 g/ha): 10
- Plant response rating, Sugar beet (sugar beet; PREEMERGENCE, Rate 50 g/ha): 5
- Plant response rating (0 to 10 scale), Sugar beet (sugar beet; PREEMERGENCE, Rate 200 g/ha): 10
- Plant response rating, Sugar beet (sugar beet; Rate 200 g/ha, POSTEMERGENCE): 10
- Plant response rating, Cheatgrass (cheatgrass; POSTEMERGENCE, Rate 50 g/ha): 4
- Plant response rating, Cheatgrass (cheatgrass; PREEMERGENCE, Rate 50 g/ha): 0
- Plant response rating (0 to 10 scale), Cheatgrass (cheatgrass; PREEMERGENCE, Rate 200 g/ha): 2
- Plant response rating, Cheatgrass (cheatgrass; Rate 200 g/ha, POSTEMERGENCE): 6
- Plant response rating, Giant foxtail (giant foxtail; POSTEMERGENCE, Rate 50 g/ha): 5
- Plant response rating, Giant foxtail (giant foxtail; PREEMERGENCE, Rate 50 g/ha): 0
- Plant response rating (0 to 10 scale), Giant foxtail (giant foxtail; PREEMERGENCE, Rate 200 g/ha): 8
- Plant response rating, Giant foxtail (giant foxtail; Rate 200 g/ha, POSTEMERGENCE): 6
- Plant response rating, Lambsquarter (lambsquarters; POSTEMERGENCE, Rate 50 g/ha): 10
- Plant response rating, Lambsquarter (lambsquarters; PREEMERGENCE, Rate 50 g/ha): 10
- Plant response rating (0 to 10 scale), Lambsquarter (lambsquarters; PREEMERGENCE, Rate 200 g/ha): 10
- Plant response rating, Lambsquarter (lambsquarters; Rate 200 g/ha, POSTEMERGENCE): 10
- Plant response rating, Corn (corn; POSTEMERGENCE, Rate 50 g/ha): 3
- Plant response rating, Corn (corn; PREEMERGENCE, Rate 50 g/ha): 0
- Plant response rating (0 to 10 scale), Corn (corn; PREEMERGENCE, Rate 200 g/ha): 2
- Plant response rating, Corn (corn; Rate 200 g/ha, POSTEMERGENCE): 3
- Plant response rating, Rice (rice; POSTEMERGENCE, Rate 50 g/ha): 4
- Plant response rating, Rice (rice; PREEMERGENCE, Rate 50 g/ha): 0
- Plant response rating (0 to 10 scale), Rice (rice; PREEMERGENCE, Rate 200 g/ha): 0
- Plant response rating, Rice (rice; Rate 200 g/ha, POSTEMERGENCE): 5
- Plant response rating, Cocklebur (cocklebur; POSTEMERGENCE, Rate 50 g/ha): 7
- Plant response rating, Cocklebur (cocklebur; PREEMERGENCE, Rate 50 g/ha): 0
- Plant response rating (0 to 10 scale), Cocklebur (cocklebur; PREEMERGENCE, Rate 200 g/ha): 0
- Plant response rating, Cocklebur (cocklebur; Rate 200 g/ha, POSTEMERGENCE): 8
- Plant response rating, Soybean (soybean; POSTEMERGENCE, Rate 50 g/ha): 6
- Plant response rating, Soybean (soybean; PREEMERGENCE, Rate 50 g/ha): 0
- Plant response rating (0 to 10 scale), Soybean (soybean; PREEMERGENCE, Rate 200 g/ha): 0
- Plant response rating, Soybean (soybean; Rate 200 g/ha, POSTEMERGENCE): 7
- Plant response rating, Wild buckwheat (wild buckwheat; POSTEMERGENCE, Rate 50 g/ha): 10
- Plant response rating, Wild buckwheat (wild buckwheat; PREEMERGENCE, Rate 50 g/ha): 0
- Plant response rating (0 to 10 scale), Wild buckwheat (wild buckwheat; PREEMERGENCE, Rate 200 g/ha): 10
- Plant response rating, Wild buckwheat (wild buckwheat; Rate 200 g/ha, POSTEMERGENCE): 10
- Plant response rating, Sorghum (sorghum; POSTEMERGENCE, Rate 50 g/ha): 6
- Plant response rating, Sorghum (sorghum; PREEMERGENCE, Rate 50 g/ha): 0
- Plant response rating (0 to 10 scale), Sorghum (sorghum; PREEMERGENCE, Rate 200 g/ha): 0
- Plant response rating, Sorghum (sorghum; Rate 200 g/ha, POSTEMERGENCE): 6
- Plant response rating, Cotton (cotton; POSTEMERGENCE, Rate 50 g/ha): 10
- Plant response rating, Cotton (cotton; PREEMERGENCE, Rate 50 g/ha): 0
- Plant response rating (0 to 10 scale), Cotton (cotton; PREEMERGENCE, Rate 200 g/ha): 0
- Plant response rating, Cotton (cotton; Rate 200 g/ha, POSTEMERGENCE): 10
- Plant response rating, Wheat (wheat; POSTEMERGENCE, Rate 50 g/ha): 4
- Plant response rating, Wheat (wheat; PREEMERGENCE, Rate 50 g/ha): 0
- Plant response rating (0 to 10 scale), Wheat (wheat; PREEMERGENCE, Rate 200 g/ha): 2
- Plant response rating, Wheat (wheat; Rate 200 g/ha, POSTEMERGENCE): 6
- Plant response rating, Nutsedge (purple nutsedge; POSTEMERGENCE, Rate 50 g/ha): 2
- Plant response rating, Nutsedge (purple nutsedge; PREEMERGENCE, Rate 50 g/ha): 0
- Plant response rating (0 to 10 scale), Nutsedge (purple nutsedge; PREEMERGENCE, Rate 200 g/ha): 5
- Plant response rating, Nutsedge (purple nutsedge; Rate 200 g/ha, POSTEMERGENCE): 2
- Plant response rating, Blackgrass (blackgrass; POSTEMERGENCE, Rate 50 g/ha): 4
- Plant response rating, Blackgrass (blackgrass; PREEMERGENCE, Rate 50 g/ha): 0
- Plant response rating (0 to 10 scale), Blackgrass (blackgrass; PREEMERGENCE, Rate 200 g/ha): 0
- Plant response rating, Blackgrass (blackgrass; Rate 200 g/ha, POSTEMERGENCE): 6
- Plant response rating, Morningglory (morningglory; POSTEMERGENCE, Rate 50 g/ha): 10
- Plant response rating, Morningglory (morningglory; PREEMERGENCE, Rate 50 g/ha): 0
- Plant response rating (0 to 10 scale), Morningglory (morningglory; PREEMERGENCE, Rate 200 g/ha): 0
- Plant response rating, Morningglory (morningglory; Rate 200 g/ha, POSTEMERGENCE): 10
- Plant response rating, Barley (barley; POSTEMERGENCE, Rate 50 g/ha): 3
- Plant response rating, Barley (barley; PREEMERGENCE, Rate 50 g/ha): 0
- Plant response rating (0 to 10 scale), Barley (barley; PREEMERGENCE, Rate 200 g/ha): 0
- Plant response rating, Barley (barley; Rate 200 g/ha, POSTEMERGENCE): 4
- Plant response rating, Rape (rape; POSTEMERGENCE, Rate 50 g/ha): 8
- Plant response rating, Rape (rape; PREEMERGENCE, Rate 50 g/ha): 0
- Plant response rating (0 to 10 scale), Rape (rape; PREEMERGENCE, Rate 200 g/ha): 3
- Plant response rating, Rape (rape; Rate 200 g/ha, POSTEMERGENCE): 10
- Plant response rating, Velvetleaf (velvetleaf; POSTEMERGENCE, Rate 50 g/ha): 10
- Plant response rating, Velvetleaf (velvetleaf; PREEMERGENCE, Rate 50 g/ha): 0
- Plant response rating (0 to 10 scale), Velvetleaf (velvetleaf; PREEMERGENCE, Rate 200 g/ha): 10
- Plant response rating, Velvetleaf (velvetleaf; Rate 200 g/ha, POSTEMERGENCE): 10
- Plant response rating, Barnyardgrass (barnyardgrass; POSTEMERGENCE, Rate 50 g/ha): 6
- Plant response rating, Barnyardgrass (barnyardgrass; PREEMERGENCE, Rate 50 g/ha): 0
- Plant response rating (0 to 10 scale), Barnyardgrass (barnyardgrass; PREEMERGENCE, Rate 200 g/ha): 5
- Plant response rating, Barnyardgrass (barnyardgrass; Rate 200 g/ha, POSTEMERGENCE): 8
